Data on 11 compounds can be found in ChEMBL document CHEMBL1201862, “PubChem BioAssay data set” (2004).

The structures appear in SMILES notation.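 Cultured in 96-well plates, cells were exposed to test compound for 48 hours across five concentrations. GI50 is the concentration that inhibits growth by half.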 Activity calls are given as the source filed them. No stated cut-off is given here; in the data, active = GI50 up to about 1.1 µM and inactive = higher.

Some test systems named below: HOP-62; BT-549; NCI-H23; CAKI-1; MCF7; NCI/ADR-RES; MDA-MB-435; ACHN; SK-MEL-5; SF-268; PC-3; OVCAR-4; KM12; K562; SR; SK-MEL-2; 786-0; HL-60; SW-620; RXF 393.
Common to all, as to assay: inhibition of tumour cell growth, NCI panel, 48 h

Regarding `CO[C@@]12C[C@H](CNC(=O)c3ccc[nH]3)O[C@@H]1NC(=O)N2`, the GI50 in the experiment on HOP-62, in the experiment with BT-549, with NCI-H23, with CAKI-1, with MCF7 and in the experiment with NCI/ADR-RES was > 100 µM (inactive) throughout. Besides, the GI50 in the experiment with MDA-MB-435, with ACHN, in the experiment with SK-MEL-5, in the experiment on SF-268, in the experiment with PC-3 and in the experiment with OVCAR-4 was > 100 µM (inactive) each time. In addition, the GI50 in the experiment on KM12, in the experiment with K562, in the experiment on SR, in the experiment on SK-MEL-2, in the experiment with 786-0 and in the experiment on HL-60 was > 100 µM (inactive) each time. In addition, the GI50 in the experiment with SW-620 was > 100 µM (inactive).

With `Cc1ccc(C)n2c1nc1ccc3ccccc3c12`, the GI50 with HOP-62 was > 100 µM (inactive); in the experiment with BT-549, > 100 µM (inactive); in the experiment with NCI-H23 it was > 100 µM (inactive); with MCF7 it was 26.8 µM (inactive); with NCI/ADR-RES, > 100 µM (inactive); in the experiment with MDA-MB-435 it was > 100 µM (inactive). For the same compound, the GI50 in the experiment with ACHN was > 100 µM (inactive); in the experiment on SK-MEL-5, 50.2 µM (inactive); in the experiment on RXF 393, > 100 µM (inactive); in the experiment with SF-268, > 100 µM (inactive); in the experiment with PC-3, 67.9 µM (inactive); in the experiment with KM12 it was > 100 µM (inactive). Also, the GI50 in the experiment with K562, in the experiment on SR, with 786-0, in the experiment on HL-60 and with SW-620 was > 100 µM (inactive) in each case.

Turning to `O=C(O)c1cc(Cl)cc2c1NC1(N2)C(=O)Nc2ccccc21` (stereo unspecified), the GI50 with HOP-62, with BT-549, in the experiment with NCI-H23, in the experiment on CAKI-1, with MCF7 and in the experiment with NCI/ADR-RES was > 100 µM (inactive) throughout. Further, the GI50 is > 100 µM (inactive) in the experiment with MDA-MB-435; > 100 µM (inactive) in the experiment with ACHN; > 100 µM (inactive) in the experiment on SK-MEL-5; 52.6 µM (inactive) in the experiment with RXF 393; 62.1 µM (inactive) in the experiment with SF-268; > 100 µM (inactive) in the experiment with PC-3. In addition, the GI50 in the experiment with OVCAR-4 was > 100 µM (inactive); in the experiment with KM12, > 100 µM (inactive); with K562, > 100 µM (inactive); with SR, 65.8 µM (inactive); in the experiment on SK-MEL-2 it was > 100 µM (inactive); in the experiment on 786-0 it was > 100 µM (inactive). In addition, the GI50 in the experiment with SW-620 is 73.6 µM (inactive).

As for `COC(OC)C1OC(CO)C(n2ccc(N)nc2=O)C1O` (stereo unspecified), the GI50 with HOP-62, in the experiment on BT-549, in the experiment on NCI-H23, in the experiment on CAKI-1, in the experiment with MCF7 and in the experiment with NCI/ADR-RES was > 100 µM (inactive) each time. The GI50 with MDA-MB-435, in the experiment with ACHN, in the experiment on SK-MEL-5, in the experiment on RXF 393, with SF-268 and in the experiment on PC-3 was > 100 µM (inactive) throughout. The GI50 in the experiment with OVCAR-4, in the experiment with KM12, with K562, with SR, in the experiment with SK-MEL-2 and in the experiment with 786-0 was > 100 µM (inactive) in each case. Further, the GI50 in the experiment on SW-620 is > 100 µM (inactive).

Consider `COP1(=O)NCc2ncccc2O1` (stereo unspecified), for which the GI50 in the experiment on HOP-62, with BT-549, with NCI-H23, with CAKI-1, in the experiment on MCF7 and in the experiment on NCI/ADR-RES was > 100 µM (inactive) throughout. Further, the GI50 with MDA-MB-435, in the experiment with ACHN, with SK-MEL-5, in the experiment on RXF 393, in the experiment with PC-3 and in the experiment on OVCAR-4 was > 100 µM (inactive) each time. Moreover, the GI50 in the experiment on KM12, in the experiment with K562, in the experiment on SR, with SK-MEL-2, in the experiment on 786-0 and with SW-620 was > 100 µM (inactive) each time.

Turning to `O=[N+]([O-])c1ccc(SN=S=NSc2cccc(SN=S=NSc3ccc([N+](=O)[O-])cc3)c2)cc1`, the GI50 is 48.8 µM (inactive) with HOP-62; 19.3 µM (inactive) in the experiment on BT-549; 19 µM (inactive) in the experiment on CAKI-1; 24.6 µM (inactive) in the experiment on MCF7; 28 µM (inactive) in the experiment on NCI/ADR-RES; 25.2 µM (inactive) in the experiment on MDA-MB-435. Also, the GI50 with ACHN is 42.3 µM (inactive); in the experiment on SK-MEL-5 it was 28.4 µM (inactive); in the experiment with SF-268 it was 33 µM (inactive); with PC-3, 16.6 µM (inactive); with OVCAR-4, 36.7 µM (inactive); in the experiment on KM12, 34.2 µM (inactive). Also, the GI50 is 25.2 µM (inactive) in the experiment on K562; 26.8 µM (inactive) in the experiment with SR; 17.1 µM (inactive) with SK-MEL-2; 13.8 µM (inactive) in the experiment on 786-0; 28.2 µM (inactive) in the experiment on HL-60; 20.4 µM (inactive) with SW-620.

Turning to `O=C(O)C(=Cc1ccc(-c2ccc([N+](=O)[O-])cc2)o1)C(=O)O`, the GI50 in the experiment with HOP-62 is < 0.01 µM (active); with BT-549, > 100 µM (inactive); in the experiment on NCI-H23 it was > 100 µM (inactive); in the experiment on CAKI-1, > 100 µM (inactive); with MCF7, > 100 µM (inactive); in the experiment with NCI/ADR-RES, > 100 µM (inactive). Further, the GI50 in the experiment on MDA-MB-435, in the experiment with ACHN, with SK-MEL-5, in the experiment on RXF 393, in the experiment with SF-268 and in the experiment on PC-3 was > 100 µM (inactive) each time. The GI50 is > 100 µM (inactive) in the experiment on KM12; > 100 µM (inactive) in the experiment with K562; > 100 µM (inactive) with SR; > 100 µM (inactive) in the experiment with SK-MEL-2; > 100 µM (inactive) in the experiment on 786-0; > 10 µM (inactive) in the experiment with HL-60. Further, in the experiment with SW-620, the GI50 was > 100 µM (inactive).

Regarding `S=C(N/N=C(\C(=N/NC(=S)N1CCCCC1)c1ccccn1)c1ccccn1)N1CCCCC1`, the GI50 in the experiment with HOP-62 was 21.3 µM (inactive); with BT-549 it was 78.2 µM (inactive); in the experiment on NCI-H23 it was 44.8 µM (inactive); in the experiment on CAKI-1, 73.6 µM (inactive); with MCF7, 12.1 µM (inactive); in the experiment on NCI/ADR-RES, 7.06 µM (inactive). Further, the GI50 in the experiment on MDA-MB-435 is 38.4 µM (inactive); with ACHN, 6.84 µM (inactive); with SK-MEL-5, 5.5 µM (inactive); in the experiment with RXF 393, 18 µM (inactive); with SF-268, 5.55 µM (inactive); in the experiment with PC-3, 35.1 µM (inactive). Besides, the GI50 with KM12 is 51.8 µM (inactive); in the experiment on K562, 32.5 µM (inactive); with SR it was > 100 µM (inactive); in the experiment on 786-0, 36.5 µM (inactive); in the experiment on HL-60 it was 1.12 µM (active); in the experiment on SW-620 it was 9.12 µM (inactive).

Consider `CC1(C)OCC(/C=C\C(O)CC2(C)OCCO2)CO1` (stereo unspecified), for which the GI50 in the experiment with HOP-62, in the experiment with BT-549, with CAKI-1, in the experiment with MCF7, in the experiment on NCI/ADR-RES and in the experiment on MDA-MB-435 was > 100 µM (inactive) in each case. For the same compound, the GI50 in the experiment with ACHN, with SK-MEL-5, in the experiment with SF-268, in the experiment with PC-3, in the experiment on OVCAR-4 and in the experiment with KM12 was > 100 µM (inactive) in each case. The GI50 in the experiment with K562, with SR, in the experiment on SK-MEL-2, with 786-0, in the experiment with HL-60 and in the experiment on SW-620 was > 100 µM (inactive) each time.

For `CC(C)(C)OC(=O)[C@@H]1ON2O[C@H](OC3CCCC3(c3ccccc3)c3ccccc3)C[C@H]3OC(=O)[C@@H]1[C@H]32` (stereo partly specified), the GI50 in the experiment on HOP-62 is 61.1 µM (inactive); with BT-549, 66.7 µM (inactive); in the experiment on NCI-H23, 46.5 µM (inactive); in the experiment on CAKI-1 it was 53.5 µM (inactive); in the experiment with MCF7 it was 70 µM (inactive); in the experiment with NCI/ADR-RES, 33.9 µM (inactive). Besides, the GI50 was 57.9 µM (inactive) with MDA-MB-435; > 100 µM (inactive) with ACHN; 41.6 µM (inactive) in the experiment on SK-MEL-5; 25.7 µM (inactive) in the experiment on RXF 393; 34.4 µM (inactive) with SF-268; 26.8 µM (inactive) in the experiment on PC-3. In addition, the GI50 with OVCAR-4 was 14.9 µM (inactive); with KM12, 36.1 µM (inactive); in the experiment on K562 it was 36.4 µM (inactive); with SR, > 100 µM (inactive); in the experiment with SK-MEL-2 it was 14.8 µM (inactive); with 786-0 it was 50.1 µM (inactive). Moreover, the GI50 in the experiment on SW-620 is 85.7 µM (inactive).

For the compound `C[C@H](CC[C@@H](O)C(C)(C)O)[C@H]1CC[C@@]2(C)[C@@H]3CC=C4[C@@H](CC[C@H](O)C4(C)C)[C@]3(C)C(=O)C[C@]12C` [BRYODULCOSIGENIN], the GI50 was > 50 µM (inactive) with HOP-62; 23.6 µM (inactive) in the experiment with BT-549; 26.6 µM (inactive) with NCI-H23; 3.05 µM (inactive) in the experiment with MCF7; 14.7 µM (inactive) with NCI/ADR-RES; 37.6 µM (inactive) in the experiment on MDA-MB-435. Also, the GI50 was > 50 µM (inactive) in the experiment on ACHN; 24.7 µM (inactive) in the experiment on SK-MEL-5; 13.7 µM (inactive) in the experiment with PC-3; > 50 µM (inactive) in the experiment on OVCAR-4; 15.1 µM (inactive) with KM12; 19.6 µM (inactive) with K562. For the same compound, the GI50 in the experiment on SR was 23.1 µM (inactive); with SK-MEL-2 it was 40.7 µM (inactive); with 786-0 it was 38.3 µM (inactive); with HL-60, 24.5 µM (inactive); in the experiment with SW-620, 22.8 µM (inactive).
